{"source": "patent US20010036933A1", "about": "“Water soluble lipidated arabinogalactan” (The University of Montana, priority 1996, published 2001)", "key": {"[1]": {"system": "neutrophil-HUVEC adhesion", "experiment": "Neutrophil-HUVEC adhesion under physiological shear forces (closed-loop capillary tube, video-microscopy)", "assay_type": "cell-based, human", "conditions": "for effect on neutrophil rolling on activated HUVEC: 1-100 μg/ml", "procedure": "The in vitro effects of Compound A-F listed in Table I on leucocyte and endothelial cell adhesion under physiological shear forces was examined as follows.\nHuman umbilical vein endothelial cells (HUVEC) were grown to confluence on the internal surface of collagen type I coated capillary tubes. Endothelial cells were stimulated for 4 hours with […] (10 ng, Genzyme), which upregulates adhesion molecules such as E-selectin within 4-6 hours. Neutrophils and lymphocytes were collected from normal human donors by venipuncture and separated from the blood on ficoll-histoplaque density gradients. The endothelial cell-coated tubes were then integrated into the closed-loop system. Leukocytes were infused into the assay system at a concentration of 1×10^6-5×10^6 cell/ml in DMEM plus 20 mM HEPES. Shear forces of 1-3 dynes/cm^2 (standard representation of blood flow) were applied via a variable speed peristaltic pump, and interactions between the leukocytes and endothelial cells were monitored by video-microscopy. Comparisons were made of the binding of leukocytes and endothelial cells treated with the 6 compounds and untreated controls.\nTo observe the effects of the compounds on neutrophil adhesive interactions, the neutrophils were infused and allowed to establish rolling for two minutes before the addition of the compounds. The compounds were added in increasing 1 μg/ml, 10 μg/ml, and 100 μg/ml final concentrations at 2 minute intervals. The interactions were recorded to video tape."}, "[2]": {"experiment": "Solubility of progesterone in water and in aqueous AG decanoate (UV absorption at 250 nm)", "assay_type": "physicochemical", "conditions": "60° C. 10 min, then 25° C. 20 h", "procedure": "Progesterone was heated with water at 60° C. for 10 min, then held at 25° C. for 20 h. […] When the above experiment was repeated with a 1% aqueous solution of AG decanoate (DS 2.59%) the saturated solution contained 4.7×10^−3% progesterone. In the UV analysis of the AG decanoate solution of the progesterone, the appropriate AG decanoate solution without progesterone was used as a spectrometer blank."}, "ovalbumin (“O.A.”)": {"system": "ovalbumin (“O.A.”)", "experiment": "Assay of adjuvant activity: antibody formation in mice injected with ovalbumin plus arabinogalactan compound", "assay_type": "in vivo", "conditions": "for adjuvant activity in antibody formation in comparison to the control: 25 μg ovalbumin in saline with 50, 10 or 2 μg compound, booster day 21, bled days 7, 14, 28, 35", "procedure": "In the experiment, 25 μg of ovalbumin (“O.A.”) was injected into mice in a saline solution together with 50, 10, 2 or 0 μg (the control) of the arabinogalactan compounds. The animals were prebled prior to immunization; injected; bled on days 7 and 14; given a booster injection on day 21; and bled on days 28 and 35 for antibody determination."}, "[3]": {"experiment": "Formation of oil-water emulsions with water-soluble lipidated arabinogalactan", "assay_type": "physicochemical"}, "tumor metastases": {"system": "tumor metastases", "conditions": "mice; cited from earlier work"}}}
{"compound": "AG dodecyl ether (DS 1.3%) [F]", "values": [{"measurement": "effect on neutrophil rolling on activated HUVEC", "setting": "[1]", "result": "no measurable effect"}]}
{"compound": "CC(=O)[C@H]1CC[C@H]2[C@@H]3CCC4=CC(=O)CC[C@]4(C)[C@H]3CC[C@]12C", "note": "[Progesterone]", "values": [{"measurement": "dissolved progesterone in saturated solution", "setting": "[2]; 1% aqueous solution of AG decanoate (DS 2.59%)", "result": "4.7×10^−3%"}, {"measurement": "dissolved progesterone in saturated solution", "setting": "[2]; water", "result": "8.8×10^−4%"}]}
{"compound": "AG palmitate [high substitution (DS 7.3%) AG palmitate]", "values": [{"measurement": "adjuvant activity in antibody formation in comparison to the control", "setting": "ovalbumin (“O.A.”)", "result": "some adjuvant activity"}]}
{"compound": "AG palmitate (DS 1.7%) [C]", "values": [{"measurement": "stability of emulsion with safflower oil", "setting": "[3]; 2 mL 1.0% aqueous solution mixed with safflower oil (4 g), room temperature", "result": "no separation of phases was evident after several days"}, {"measurement": "behaviour on shaking with hexane", "setting": "[3]; 2 mL 1% solution shaken with hexane (1 mL)", "result": "upper phase became extremely viscous and opaque and remained in this state for several days"}, {"measurement": "adjuvant activity in antibody formation in comparison to the control", "setting": "ovalbumin (“O.A.”)", "result": "some adjuvant activity"}, {"measurement": "adjuvant activity, rank among the three arabinogalactan compounds", "setting": "ovalbumin (“O.A.”); ovalbumin antigen", "result": "highest adjuvant activity"}, {"measurement": "concentration effective in blocking neutrophil-HUVEC adhesion", "setting": "[1]", "result": 1, "unit": "µg/mL"}, {"measurement": "effect on neutrophil rolling on activated HUVEC", "setting": "[1]", "result": "significantly blocked"}]}
{"compound": "AG decanoate (DS 2.6%)", "values": [{"measurement": "effect on neutrophil rolling on activated HUVEC", "setting": "[1]", "result": "no measurable effect"}]}
{"compound": "AG (ultrarefined) [Compound A, reference compound]", "values": [{"measurement": "effect on tumor metastases", "setting": "tumor metastases", "result": "reduce tumor metastases"}, {"measurement": "adjuvant activity in antibody formation in comparison to the control", "setting": "ovalbumin (“O.A.”)", "result": "some adjuvant activity"}, {"measurement": "effect on neutrophil rolling on activated HUVEC", "setting": "[1]", "result": "significantly blocked"}, {"measurement": "reduction in neutrophil adhesion", "setting": "[1]; during the time course, 1, 10, 100 μg/ml added at 2 minute intervals, IL-stimulated HUVEC", "result": "~75", "unit": "%"}, {"measurement": "reduction of neutrophil binding to baseline", "setting": "[1]; even at 10 μg/ml or 100 μg/ml", "result": "did not reduce binding to baseline"}]}
{"compound": "AG stearate (DS 1.7%) [B]", "values": [{"measurement": "concentration effective in blocking neutrophil-HUVEC adhesion", "setting": "[1]", "result": 1, "unit": "µg/mL"}, {"measurement": "effect on neutrophil rolling on activated HUVEC", "setting": "[1]", "result": "significantly blocked"}]}
{"compound": "galactan from fractional hydrolysis of AG (arabinose 1.5%)", "values": [{"measurement": "effect on neutrophil rolling on activated HUVEC", "setting": "[1]", "result": "no measurable effect"}]}
